# Assay results published in publication PMC3087488 (Journal of Oncology, 2011).
# Assays:
# VEGFR1 = test system: VEGFR1; design: method as in PMID 16951187; conditions: cited from earlier work
# PDGFR = test system: PDGFR; design: method as in PMID 16951187; conditions: cited from earlier work
# Kit = test system: Kit; design: method as in PMID 16951187; conditions: cited from earlier work
# [1] = phase 1b dose escalation: dose-limiting toxicities and MTD; conditions: in combination with panitumumab and gemcitabine/cisplatin; patients with advanced solid tumors
smiles,measurement,setting,value
CC1(C)CNc2cc(NC(=O)c3cccnc3NCc3ccncc3)ccc21 [motesanib],IC50,VEGFR1,[…]
same,IC50,PDGFR,84 nM
same,maximum tolerated dose (MTD) of motesanib,[1],100 mg QD
